Measured values: patent publication US11000033B2, “Ketone or oxime compound, and herbicide” (NISSAN CHEMICAL CORPORATION, priority 2014, dated 2021)

How the values were obtained:
Format in all cases: in vivo
Veronica persica = experiment: Test Example 5: herbicidal effect by foliage application, plastic box (symbol R); conditions: 320 g/ha, 3 weeks after application
Outline: (§1)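 Emulsion formulation, diluted with water to the intended rate, was applied uniformly to leaves by small sprayer. Recipients were 14-day greenhouse-grown seedlings (25° C. to 30° C.). Assessment followed at 3 weeks.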

corn [1] = experiment: Test Example 5: effect on crop by foliage application, plastic box (symbol c); conditions: 320 g/ha, 3 weeks after application
Outline: (§2)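 Soil: sterilized diluvial. Container: plastic box, 21 × 13 cm, 7 cm deep. Sowing: spot-like, ~1.5 cm cover. Growth: greenhouse, 25° C. to 30° C.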

soybean = experiment: Test Example 5: effect on crop by foliage application, plastic box (symbol d); conditions: 320 g/ha, 3 weeks after application
Outline: as §2

transplanted rice plant = experiment: Test Example 1: effect on crop, application before weed generation in submerged conditions (symbol a); conditions: application herbicide amount 320 g/ha
Outline: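 Rice at 2.5 leaf stage transplanted into submerged soil (4 cm depth) sown with three weed species; herbicide applied before weed emergence.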

corn [2] = experiment: Test Example 4: effect on crop by soil treatment (symbol c); conditions: application herbicide amount 320 g/ha
Outline: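 Crop seed is sown in spots together with several weed species in a box of sterilized diluvial soil. It is covered by about 1.5 cm of soil and kept in a greenhouse held between 25° C. and 30° C.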

[3] = tested on: Echinochloa crus-galli var. crus-galli; experiment: Test Example 5: herbicidal effect by foliage application, plastic box (symbol H); conditions: 320 g/ha, 3 weeks after application
Outline: as §1

[4] = tested on: Echinochloa crus-galli var. crus-galli; experiment: Test Example 3: herbicidal effect by foliage application, Wagner pot (symbol H); conditions: application herbicide amount 320 g/ha
Outline: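 Herbicidal activity was rated three weeks after a foliar spray of diluted emulsion concentrate, applied at a predetermined dose to plants grown for 14 days from seed in waterlogged alluvial soil within a 25–30 °C greenhouse.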

Alopecurus myosuroides [5] = experiment: Test Example 5: herbicidal effect by foliage application, plastic box (symbol J); conditions: 320 g/ha, 3 weeks after application
Outline: as §1

Abutilon theophrasti = experiment: Test Example 4: herbicidal effect by soil treatment (symbol M); conditions: application herbicide amount 320 g/ha
Outline: (§3)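 Seeds were sown in sterilized diluvial soil, covered with about 1.5 cm of soil, and the soil surface was sprayed with a water-diluted emulsion of the compound at a predetermined rate. Plants grew in a greenhouse at 25° C. to 30° C.; effects were scored visually 3 weeks after application.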

Amaranthus retroflexus = experiment: Test Example 5: herbicidal effect by foliage application, plastic box (symbol N); conditions: 320 g/ha, 3 weeks after application
Outline: as §1

Apera spica-venti = experiment: Test Example 5: herbicidal effect by foliage application, plastic box (symbol L); conditions: 320 g/ha, 3 weeks after application
Outline: as §1

Alopecurus myosuroides [6] = experiment: Test Example 4: herbicidal effect by soil treatment (symbol J); conditions: application herbicide amount 320 g/ha
Outline: as §3

Chenopodium album [7] = experiment: Test Example 4: herbicidal effect by soil treatment (symbol O); conditions: application herbicide amount 320 g/ha
Outline: as §3

Galium spurium = experiment: Test Example 4: herbicidal effect by soil treatment (symbol Q); conditions: application herbicide amount 320 g/ha
Outline: as §3

Stellaria media = experiment: Test Example 4: herbicidal effect by soil treatment (symbol P); conditions: application herbicide amount 320 g/ha
Outline: as §3

Chenopodium album [8] = experiment: Test Example 5: herbicidal effect by foliage application, plastic box (symbol O); conditions: 320 g/ha, 3 weeks after application
Outline: as §1

Lolium multiflorum Lam. = experiment: Test Example 5: herbicidal effect by foliage application, plastic box (symbol K); conditions: 320 g/ha, 3 weeks after application
Outline: as §1

Compound	R: Veronica persica, herbicidal effect (criteria of Test Example 1) (Veronica persica)	c: corn, effect on crop (criteria of Test Example 1) (corn [1])	d: soybean, effect on crop (criteria of Test Example 1) (soybean)	Effect grade on crop, a: transplanted rice plant (transplanted rice plant)	Effect on crop grade, c: corn (corn [2])	H: Echinochloa crus-galli var. crus-galli, herbicidal effect (criteria of Test Example 1) [3]	herbicidal effect on H (Echinochloa crus-galli var. crus-galli), grade 0-5 [4]	J: Alopecurus myosuroides, herbicidal effect (criteria of Test Example 1) (Alopecurus myosuroides [5])	Herbicidal effect grade, M: Abutilon theophrasti (Abutilon theophrasti)	N: Amaranthus retroflexus, herbicidal effect (criteria of Test Example 1) (Amaranthus retroflexus)	L: Apera spica-venti, herbicidal effect (criteria of Test Example 1) (Apera spica-venti)	Herbicidal effect grade, J: Alopecurus myosuroides (Alopecurus myosuroides [6])	Herbicidal effect grade, O: Chenopodium album (Chenopodium album [7])	Herbicidal effect grade, Q: Galium spurium (Galium spurium)	Herbicidal effect grade, P: Stellaria media (Stellaria media)	O: Chenopodium album, herbicidal effect (criteria of Test Example 1) (Chenopodium album [8])	K: Lolium multiflorum Lam., herbicidal effect (criteria of Test Example 1) (Lolium multiflorum Lam.)
CON=C(C)CC1CC(O)=C(c2c(C)cc(-c3ccc(F)c(Cl)c3)cc2C)C1=O (centres unmarked) [6-085]	4 (Herbicidal ratio of 70% or higher and lower than 90%)	3 (Herbicidal ratio of 40% or higher and lower than 70%)	5 (Herbicidal ratio of 90% or more (almost completely withered))	5 (Herbicidal ratio of 90% or more (almost completely withered))	1 (Herbicidal ratio of 5% or higher and lower than 20%)	5 (Herbicidal ratio of 90% or more (almost completely withered))	5 (Herbicidal ratio of 90% or more (almost completely withered))	5 (Herbicidal ratio of 90% or more (almost completely withered))	4 (Herbicidal ratio of 70% or higher and lower than 90%)	3 (Herbicidal ratio of 40% or higher and lower than 70%)	5 (Herbicidal ratio of 90% or more (almost completely withered))	5 (Herbicidal ratio of 90% or more (almost completely withered))	5 (Herbicidal ratio of 90% or more (almost completely withered))	4 (Herbicidal ratio of 70% or higher and lower than 90%)	5 (Herbicidal ratio of 90% or more (almost completely withered))	5 (Herbicidal ratio of 90% or more (almost completely withered))	5 (Herbicidal ratio of 90% or more (almost completely withered))
CON=C(C)CC1CC(O)=C(c2c(C)cc(-c3cc(Cl)cc(Cl)c3)cc2C)C1=O (centres unmarked) [6-087]	4 (Herbicidal ratio of 70% or higher and lower than 90%)	0 (Herbicidal ratio of 5% or lower (almost no effect))	3 (Herbicidal ratio of 40% or higher and lower than 70%)	2 (Herbicidal ratio of 20% or higher and lower than 40%)	0 (Herbicidal ratio of 5% or lower (almost no effect))	5 (Herbicidal ratio of 90% or more (almost completely withered))	5 (Herbicidal ratio of 90% or more (almost completely withered))	4 (Herbicidal ratio of 70% or higher and lower than 90%)	0 (Herbicidal ratio of 5% or lower (almost no effect))	0 (Herbicidal ratio of 5% or lower (almost no effect))	3 (Herbicidal ratio of 40% or higher and lower than 70%)	4 (Herbicidal ratio of 70% or higher and lower than 90%)	0 (Herbicidal ratio of 5% or lower (almost no effect))	0 (Herbicidal ratio of 5% or lower (almost no effect))	0 (Herbicidal ratio of 5% or lower (almost no effect))	0 (Herbicidal ratio of 5% or lower (almost no effect))	4 (Herbicidal ratio of 70% or higher and lower than 90%)
CON=C(C)CC1CC(O)=C(c2c(C)cc(-c3ccc(Cl)cc3Cl)cc2C)C1=O (centres unmarked) [6-088]	5 (Herbicidal ratio of 90% or more (almost completely withered))	2 (Herbicidal ratio of 20% or higher and lower than 40%)	5 (Herbicidal ratio of 90% or more (almost completely withered))	3 (Herbicidal ratio of 40% or higher and lower than 70%)	0 (Herbicidal ratio of 5% or lower (almost no effect))	5 (Herbicidal ratio of 90% or more (almost completely withered))	5 (Herbicidal ratio of 90% or more (almost completely withered))	5 (Herbicidal ratio of 90% or more (almost completely withered))	3 (Herbicidal ratio of 40% or higher and lower than 70%)	0 (Herbicidal ratio of 5% or lower (almost no effect))	5 (Herbicidal ratio of 90% or more (almost completely withered))	5 (Herbicidal ratio of 90% or more (almost completely withered))	5 (Herbicidal ratio of 90% or more (almost completely withered))	4 (Herbicidal ratio of 70% or higher and lower than 90%)	5 (Herbicidal ratio of 90% or more (almost completely withered))	5 (Herbicidal ratio of 90% or more (almost completely withered))	5 (Herbicidal ratio of 90% or more (almost completely withered))
CON=C(C)CC1CC(OC(=O)COc2ccccc2)=C(c2c(C)cc(C)cc2OC)C1=O (centres unmarked) [6-091]	4 (Herbicidal ratio of 70% or higher and lower than 90%)	5 (Herbicidal ratio of 90% or more (almost completely withered))	4 (Herbicidal ratio of 70% or higher and lower than 90%)	5 (Herbicidal ratio of 90% or more (almost completely withered))	5 (Herbicidal ratio of 90% or more (almost completely withered))	5 (Herbicidal ratio of 90% or more (almost completely withered))	5 (Herbicidal ratio of 90% or more (almost completely withered))	5 (Herbicidal ratio of 90% or more (almost completely withered))	5 (Herbicidal ratio of 90% or more (almost completely withered))	2 (Herbicidal ratio of 20% or higher and lower than 40%)	5 (Herbicidal ratio of 90% or more (almost completely withered))	5 (Herbicidal ratio of 90% or more (almost completely withered))	3 (Herbicidal ratio of 40% or higher and lower than 70%)	0 (Herbicidal ratio of 5% or lower (almost no effect))	4 (Herbicidal ratio of 70% or higher and lower than 90%)	3 (Herbicidal ratio of 40% or higher and lower than 70%)	5 (Herbicidal ratio of 90% or more (almost completely withered))
